The results in this text go back to ChEMBL document CHEMBL1201862, “PubChem BioAssay data set” (2004).

Among the test systems are SR; ACHN; DU-145; HL-60; SK-MEL-5; NCI-H226; SK-MEL-2; UACC-62; KM12; MDA-N; HCC 2998; SNB-75; MDA-MB-231; SK-MEL-28; NCI-H23; SF-295; SW-620; OVCAR-4; MCF7; LXFL 529.
Holding throughout (test): DTP human tumour cell line panel, 48 h

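The compound was tested at five concentrations on cells cultured in 96-well plates, with a 48-hour exposure period. GI50 = concentration required for 50% inhibition of growth.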 Calls of active or inactive are those of the source. No stated cut-off is given here; in the data, active = GI50 up to about 1.1 µM and inactive = higher.

For `O=C1Nc2ccc(S(=O)(=O)O)cc2/C1=C1/Nc2ccc(Br)cc2C1=O`, the GI50 with SR, in the test with ACHN, with DU-145, in the test on HL-60, in the test on SK-MEL-5 and in the test with NCI-H226 was > 100 µM (inactive) each time. The GI50 with SK-MEL-2, with UACC-62, in the test on KM12, with MDA-N, with HCC 2998 and in the test with SNB-75 was > 100 µM (inactive) each time. The GI50 with MDA-MB-231, with SK-MEL-28, in the test with NCI-H23, in the test with SF-295, in the test with SW-620 and with OVCAR-4 was > 100 µM (inactive) in each case. Further, the GI50 in the test with MCF7 was 72.8 µM (inactive).
As to `COc1cccc(NC(=O)/C(CC(=O)CC(c2ccccc2)c2c(O)c3ccccc3oc2=O)=N\NC(C)(C)C)c1OC` (stereo not drawn), the GI50 with LXFL 529 is 41.3 µM (inactive); in the test with ACHN it was 34.4 µM (inactive); in the test with HL-60 it was 22.5 µM (inactive); in the test on SK-MEL-5 it was > 100 µM (inactive); with SK-MEL-2 it was > 100 µM (inactive); in the test with UACC-62 it was 33.3 µM (inactive). The GI50 in the test with KM12 was 34 µM (inactive); in the test with HCC 2998, 40.9 µM (inactive); in the test with SNB-75, 27.7 µM (inactive); in the test on SK-MEL-28, > 100 µM (inactive); with SF-295, > 100 µM (inactive); with SW-620 it was > 100 µM (inactive). Also, in the test with OVCAR-4, the GI50 was > 100 µM (inactive).
As for `COCn1c(=O)n(C)c(=O)c2c1nc1c(c(=O)n(C)c(=O)n1COC)[n+]2[O-]`, the GI50 is 3.77 µM (inactive) in the test on SR; 5.73 µM (inactive) in the test with ACHN; 17.1 µM (inactive) in the test with DU-145; 12.7 µM (inactive) in the test on HL-60; 5.83 µM (inactive) with SK-MEL-5; 10.1 µM (inactive) with NCI-H226. Moreover, the GI50 in the test on SK-MEL-2 is 12.6 µM (inactive); in the test on UACC-62, 7.01 µM (inactive); in the test with KM12, 13.3 µM (inactive); with MDA-N, 4.32 µM (inactive); in the test on HCC 2998, 5.33 µM (inactive); in the test with SNB-75, 2.75 µM (inactive). Moreover, the GI50 in the test on MDA-MB-231 was 15.3 µM (inactive); in the test with SK-MEL-28 it was 35.9 µM (inactive); with NCI-H23, 3.29 µM (inactive); in the test on SF-295, 7.55 µM (inactive); in the test with SW-620, 11.1 µM (inactive); in the test with OVCAR-4, 4.85 µM (inactive). Moreover, the GI50 with MCF7 was 20.4 µM (inactive).
As for `CSC(=NC1=NC(C(F)(F)F)(C(F)(F)F)N=C(c2ccccc2)O1)SC`, the GI50 in the test on SR was 10.7 µM (inactive); in the test on ACHN, 3.53 µM (inactive); in the test with DU-145, 6.9 µM (inactive); in the test on HL-60, 30.9 µM (inactive); in the test with SK-MEL-5, 16.1 µM (inactive); in the test on NCI-H226, 26.9 µM (inactive). Besides, the GI50 was 16 µM (inactive) in the test with SK-MEL-2; 20 µM (inactive) with UACC-62; 4.91 µM (inactive) with KM12; 17.3 µM (inactive) with MDA-N; 12.5 µM (inactive) in the test on HCC 2998; 3.15 µM (inactive) with SNB-75. Further, the GI50 with MDA-MB-231 is 20.3 µM (inactive); with SK-MEL-28, 38.7 µM (inactive); in the test with NCI-H23, 7.31 µM (inactive); in the test on SF-295, 7.13 µM (inactive); with SW-620, 9.38 µM (inactive); in the test with OVCAR-4, 10.3 µM (inactive). For the same molecule, the GI50 in the test on MCF7 is 14.8 µM (inactive).
Regarding `O=C(NNCC(F)(F)F)c1ccncc1`, the GI50 in the test on SR, with ACHN, in the test with DU-145, with HL-60, in the test on SK-MEL-5 and in the test with NCI-H226 was > 100 µM (inactive) each time. Moreover, the GI50 in the test on SK-MEL-2, in the test on UACC-62, with KM12, with MDA-N, in the test with HCC 2998 and in the test on SNB-75 was > 100 µM (inactive) in each case. The GI50 in the test with MDA-MB-231, with SK-MEL-28, in the test with NCI-H23, with SF-295, with SW-620 and in the test on OVCAR-4 was > 100 µM (inactive) in each case. Moreover, the GI50 in the test with MCF7 is > 100 µM (inactive).
For `CCOC(=O)Nc1cc2c(c(N)n1)N=C(c1ccc3ccccc3c1)CN2`, the GI50 was 0.0329 µM (active) in the test on SR; 0.258 µM (active) in the test on ACHN; 0.101 µM (active) in the test with DU-145; 0.0167 µM (active) in the test with HL-60; < 0.0164 µM (active) with SK-MEL-5; 0.34 µM (active) in the test on NCI-H226. The GI50 with SK-MEL-2 was 0.373 µM (active); in the test with UACC-62, 0.0328 µM (active); in the test with KM12, 0.0715 µM (active); in the test on MDA-N, < 0.01 µM (active); with HCC 2998, 0.215 µM (active); in the test on SNB-75 it was 0.111 µM (active). Besides, the GI50 in the test on MDA-MB-231 was 2.39 µM (inactive); in the test with SK-MEL-28, 1.95 µM (inactive); in the test on NCI-H23, 0.325 µM (active); in the test with SF-295 it was 0.0281 µM (active); in the test on SW-620, 0.0485 µM (active); with OVCAR-4 it was 1.44 µM (inactive). The GI50 in the test on MCF7 is 0.192 µM (active).
Regarding `COCn1c(C)c(C)c2c(=O)oc(N(C)C)nc21`, the GI50 in the test with SR, in the test with ACHN, in the test with DU-145, with HL-60, in the test on SK-MEL-5 and in the test on NCI-H226 was > 100 µM (inactive) each time. Moreover, the GI50 with SK-MEL-2, with UACC-62, in the test with KM12, with MDA-N, in the test on HCC 2998 and with SNB-75 was > 100 µM (inactive) each time. Besides, the GI50 with MDA-MB-231, in the test on SK-MEL-28, in the test with NCI-H23, in the test with SF-295, in the test with SW-620 and with OVCAR-4 was > 100 µM (inactive) each time. In the test with MCF7, the GI50 is > 100 µM (inactive).
As for `CC(=O)OC1CCC2(C)C(=CCC3C4CCC5(OC6CC(C)CN(C(C)=O)C6C5C)C(C)=C4C(=O)C32)C1` (stereo not drawn), the GI50 in the test with SR was 16 µM (inactive); with ACHN, 25.5 µM (inactive); with DU-145, 30.8 µM (inactive); in the test with HL-60 it was 81.3 µM (inactive); with SK-MEL-5, 10 µM (inactive); in the test on NCI-H226, 22.2 µM (inactive). For the same molecule, the GI50 in the test with SK-MEL-2 was 17.8 µM (inactive); with UACC-62 it was 5.35 µM (inactive); with KM12 it was 16.7 µM (inactive); with MDA-N it was 23.6 µM (inactive); in the test on HCC 2998, 13.7 µM (inactive); in the test with SNB-75 it was 19 µM (inactive). The GI50 was 17.2 µM (inactive) with MDA-MB-231; > 100 µM (inactive) with SK-MEL-28; 15 µM (inactive) in the test on NCI-H23; 19.1 µM (inactive) in the test on SF-295; 66.8 µM (inactive) with SW-620; 15.4 µM (inactive) in the test on OVCAR-4. The GI50 in the test on MCF7 was 10.5 µM (inactive).
As for `COC(=O)/C=C/C(=O)Nc1cc(Cl)c(Cl)cc1CC(=O)N(C)[C@H]1CCCC[C@@H]1N1CCCC1`, the GI50 with SR is 1.95 µM (inactive); in the test on ACHN, 2.85 µM (inactive); with DU-145, 5.02 µM (inactive); in the test with HL-60, 2.06 µM (inactive); with SK-MEL-5, 8.67 µM (inactive); in the test with NCI-H226, 15.3 µM (inactive). For the same molecule, the GI50 in the test with SK-MEL-2 was 7.29 µM (inactive); in the test with UACC-62, 13.9 µM (inactive); in the test with KM12, 22.1 µM (inactive); with MDA-N, 6.61 µM (inactive); in the test with HCC 2998 it was 7.67 µM (inactive); in the test with SNB-75, 13.8 µM (inactive). Besides, the GI50 was 13.3 µM (inactive) with MDA-MB-231; 16.1 µM (inactive) in the test on SK-MEL-28; 13.8 µM (inactive) in the test on NCI-H23; 18.3 µM (inactive) with SF-295; 3.63 µM (inactive) with SW-620; 8.63 µM (inactive) in the test on OVCAR-4. Further, the GI50 in the test on MCF7 is 3.49 µM (inactive).
As to `CC1Cc2c(cc(N)nc2Br)NC1=O` (stereo not drawn), the GI50 with SR was 84.1 µM (inactive); in the test on ACHN, 64.3 µM (inactive); with DU-145, > 100 µM (inactive); with HL-60, > 10 µM (inactive); with SK-MEL-5, 85.1 µM (inactive); with NCI-H226, > 100 µM (inactive). The GI50 in the test with SK-MEL-2 is > 100 µM (inactive); in the test on UACC-62 it was > 100 µM (inactive); with KM12, > 100 µM (inactive); in the test with MDA-N, 46.1 µM (inactive); with HCC 2998, > 100 µM (inactive); with SNB-75 it was 74.8 µM (inactive). Also, the GI50 with MDA-MB-231, in the test on SK-MEL-28, in the test on NCI-H23, in the test on SF-295, in the test with SW-620 and in the test with OVCAR-4 was > 100 µM (inactive) each time. Further, the GI50 in the test with MCF7 is > 100 µM (inactive).
As to `CCCCCCCCCCCCCCCCCCNc1ccn(C2OC(COP(=O)(O)OCC(COP(=O)(O)OCC3OC(n4cc(C)c(=O)[nH]c4=O)CC3N=[N+]=[N-])OCCCCCCCCCCCCCCCCCC)C(O)C2O)c(=O)n1` (stereo not drawn), the GI50 was > 100 µM (inactive) in the test on SR; > 100 µM (inactive) in the test with ACHN; > 100 µM (inactive) in the test with DU-145; > 100 µM (inactive) in the test with HL-60; 86.5 µM (inactive) with SK-MEL-5; > 100 µM (inactive) with NCI-H226. The GI50 in the test with SK-MEL-2 was > 100 µM (inactive); in the test with UACC-62, 49.5 µM (inactive); in the test with KM12 it was 38.5 µM (inactive); with MDA-N it was > 100 µM (inactive); in the test with HCC 2998, 99.1 µM (inactive); with SNB-75 it was 49 µM (inactive). Moreover, the GI50 with MDA-MB-231 was 44.3 µM (inactive); in the test on SK-MEL-28, > 100 µM (inactive); with NCI-H23, 77.4 µM (inactive); with SF-295 it was > 100 µM (inactive); in the test with SW-620 it was > 100 µM (inactive); with OVCAR-4 it was 70.5 µM (inactive). Besides, the GI50 in the test on MCF7 is 34.4 µM (inactive).

By GI50 is commonly meant the concentration that inhibits growth by half.
